Like-named read-outs stand apart in the source and are kept apart here.
What was measured:
[1] = tested on: human hepatocyte culture H971; assay: Morphology of cultured human hepatocytes after treatment; assay type: cell-based; conditions: within 24 hours after final treatment
Protocol: At the time of isolation the viability of the human hepatocyte preparation was 70.9%. During and after the 72-hour adaptation period, the culture was observed daily by light microscopy and judged to be morphologically normal with confluency adequate for treatment with test and control articles. Within 24 hours after the final treatment, hepatocytes were photographed to document their morphological integrity and any overt signs of toxicity of the test articles. Representative photomicrographs are maintained at the Testing Facility. […] Prior to and during treatment, human hepatocyte cultures formed confluent monolayers with few intercellular spaces; they were cuboidal and contained intact cell membranes and granular cytoplasm with one or two centrally located nuclei.

CYP1A2 = conditions: human, 3 days; for Enzyme activity, Phenacetin O-dealkylation (CYP1A2) / Percent positive control, Phenacetin O-dealkylation (CYP1A2) activity: hepatocytes
Protocol: (§1) After treatment, the cells were incubated in situ with marker substrates for the analysis of phenacetin O-dealkylation (marker for CYP1A2) and midazolam 1′-hydroxylation (marker for CYP3A4/5) by LC/MS/MS.
(§2) Incubations of hepatocytes with probe substrates were conducted in accordance with SOP L5041.02. Approximately 24 hours after the last treatment, spent media was aspirated from the wells, and each well was rinsed two times with pre-warmed (37±2° C.) fresh culture media. Media was aspirated from the wells and reactions were started by addition of 200 μL pre-warmed media containing the probe substrate to each well. […] At 30 minutes, an aliquot (150 μL) of the incubation mixture was removed and added to a well of a 96-well plate containing 300 μL of stop reagent (acetonitrile) and internal standard (Table 2). The mixtures were mixed thoroughly and allowed to sit for at least 15 minutes at 2-8° C. Samples were centrifuged at 2000×g for 10 minutes at 2-8° C., and supernatant fractions were analyzed by LC/MS/MS.
(§3) All analyses were performed with validated LC/MS/MS methods. The procedures used for the analysis of each metabolite followed the applicable LC/MS/MS analytical method SOPs and are summarized in Table 2. The MS equipment was either an ABI Sciex (Applied Biosystems/MDS SCIEX) API 4000 or API 3000 instrument with Shimadzu HPLC pumps and autosampler systems.
(§4) Individual rates of reaction from like treatment groups were averaged, and for those groups with n≧3, standard deviations were determined. Fold increases were determined by dividing the enzymatic rate for each treatment group by that of the vehicle control. Percent positive control was calculated with the following equation: […]

CYP3A4/5 = conditions: human, 3 days; for Enzyme activity, Midazolam 1′-hydroxylation (CYP3A4/5) / Percent positive control, Midazolam 1′-hydroxylation (CYP3A4/5) activity: hepatocytes
Protocol: as §1, §2, §3, §4

[2] = tested on: cultured human hepatocytes; assay type: in vitro ADME
Protocol: Just prior to treatment, on each day of treatment, and just prior to incubation of the marker substrates, spent culture medium (spent dosing media) were collected from the vehicle, laquinimod and Compound 2 treatment groups. Approximately 150 μL was collected from each of three wells, from each aforementioned treatment groups, and pooled for each sample to a final volume of approximately 450 μL. These spent media samples were analyzed for residual laquinimod, Compound 2 and the de-ethylated metabolite (DELAQ).
The concentrations of Compound 2, laquinimod and DELAQ were measured in spent media aliquots from media collected just prior to treatment, on each day of treatment, and just prior to incubation of the marker substrates. The concentration of formed DELAQ was approximately 2-fold higher in the laquinimod media compared to the Compound 2 media. At the 10 μM treatment concentrations of either Compound 2 or laquinimod, the ratio of Compound 2:DELAQ was on average, 40.9 while the ratio of laquinimod:DELAQ was on average, 15.7. This represents an approximately 3-fold increase in the formation of DELAQ from laquinimod compared to Compound 2 and is explained by the presence of deuterium on the ethyl moiety which results in slower N-deethylation.

SMILES | cell morphology after treatment [1] | Fold Increase, Phenacetin O-dealkylation (CYP1A2) activity (CYP1A2; 0.01 μM) | Fold Increase, Phenacetin O-dealkylation (CYP1A2) activity (CYP1A2; 0.05 μM) | Fold Increase, Phenacetin O-dealkylation (CYP1A2) activity (CYP1A2; 0.1 μM) | Fold Increase, Phenacetin O-dealkylation (CYP1A2) activity (CYP1A2; 1 μM) | Fold Increase, Phenacetin O-dealkylation (CYP1A2) activity (CYP1A2; 10 μM) | Enzyme activity, Phenacetin O-dealkylation (CYP1A2) (CYP1A2; 0.01 μM) | Percent positive control, Phenacetin O-dealkylation (CYP1A2) activity (CYP1A2; 0.01 μM) | Enzyme activity, Phenacetin O-dealkylation (CYP1A2) (CYP1A2; 0.05 μM) | Percent positive control, Phenacetin O-dealkylation (CYP1A2) activity (CYP1A2; 0.05 μM) | Enzyme activity, Phenacetin O-dealkylation (CYP1A2) (CYP1A2; 0.1 μM) | Percent positive control, Phenacetin O-dealkylation (CYP1A2) activity (CYP1A2; 0.1 μM) | Enzyme activity, Phenacetin O-dealkylation (CYP1A2) (CYP1A2; 1 μM) | Percent positive control, Phenacetin O-dealkylation (CYP1A2) activity (CYP1A2; 1 μM) | Enzyme activity, Phenacetin O-dealkylation (CYP1A2) (CYP1A2; 10 μM) | Percent positive control, Phenacetin O-dealkylation (CYP1A2) activity (CYP1A2; 10 μM) | Fold Increase, Midazolam 1′-hydroxylation (CYP3A4/5) activity (CYP3A4/5; 0.01 μM) | Fold Increase, Midazolam 1′-hydroxylation (CYP3A4/5) activity (CYP3A4/5; 0.05 μM) | Fold Increase, Midazolam 1′-hydroxylation (CYP3A4/5) activity (CYP3A4/5; 0.1 μM) | Fold Increase, Midazolam 1′-hydroxylation (CYP3A4/5) activity (CYP3A4/5; 1 μM) | further results
[2H]C([2H])([2H])C([2H])([2H])N(C(=O)c1c(O)c2c(Cl)cccc2n(C)c1=O)c1ccccc1 [Compound 2, N-D5-ethyl-N-phenyl-1,2-dihydro-4-hydroxy-5-chloro-1-methyl-2-oxoquinoline-3-carboxamide] | no changes in cell morphology | 7.39 fold | 10.54 fold | 16.12 fold | 30.36 fold | 60.21 fold | 22.1 ± 2.7 pmol/mg protein/min | 23.3% | 31.6 ± 2.6 pmol/mg protein/min | 34.9% | 48.2 ± 2.4 pmol/mg protein/min | 55.2% | 90.8 ± 11.5 pmol/mg protein/min | 107% | 180 ± 8 pmol/mg protein/min | 216% | 0.91 fold | 0.77 fold | 0.72 fold | 0.56 fold | Fold Increase, Midazolam 1′-hydroxylation (CYP3A4/5) activity (CYP3A4/5; 10 μM): 0.51 fold; Enzyme activity, Midazolam 1′-hydroxylation (CYP3A4/5) (CYP3A4/5; 0.01 μM): 0.179 ± 0.006 pmol/mg protein/min; Percent positive control, Midazolam 1′-hydroxylation (CYP3A4/5) activity (CYP3A4/5; 0.01 μM): −2.24%; Enzyme activity, Midazolam 1′-hydroxylation (CYP3A4/5) (CYP3A4/5; 0.05 μM): 0.151 ± 0.009 pmol/mg protein/min; Percent positive control, Midazolam 1′-hydroxylation (CYP3A4/5) activity (CYP3A4/5; 0.05 μM): −5.94%; Enzyme activity, Midazolam 1′-hydroxylation (CYP3A4/5) (CYP3A4/5; 0.1 μM): 0.140 ± 0.010 pmol/mg protein/min; Percent positive control, Midazolam 1′-hydroxylation (CYP3A4/5) activity (CYP3A4/5; 0.1 μM): −7.46%; Enzyme activity, Midazolam 1′-hydroxylation (CYP3A4/5) (CYP3A4/5; 1 μM): 0.109 ± 0.010 pmol/mg protein/min; Percent positive control, Midazolam 1′-hydroxylation (CYP3A4/5) activity (CYP3A4/5; 1 μM): −11.5%; Enzyme activity, Midazolam 1′-hydroxylation (CYP3A4/5) (CYP3A4/5; 10 μM): 0.101 ± 0.003 pmol/mg protein/min; Percent positive control, Midazolam 1′-hydroxylation (CYP3A4/5) activity (CYP3A4/5; 10 μM): −12.7%; difference in the Compound 2:DELAQ to laquinimod:DELAQ ratio ([2]; 10 μM): ~3 fold; ratio of test article:DELAQ in spent media, on average ([2]; 10 μM): 40.9
CCN(C(=O)c1c(O)c2c(Cl)cccc2n(C)c1=O)c1ccccc1 [Laquinimod, N-ethyl-N-phenyl-1,2-dihydro-4-hydroxy-5-chloro-1-methyl-2-oxoquinoline-3-carboxamide] | no changes in cell morphology | 8.43 fold | 18.06 fold | 21.75 fold | 43.79 fold | 61.02 fold | 25.2 ± 0.8 pmol/mg protein/min | 27.1% | 54.0 ± 4.5 pmol/mg protein/min | 62.3% | 65.1 ± 1.9 pmol/mg protein/min | 75.8% | 131 ± 12 pmol/mg protein/min | 156% | 183 ± 7 pmol/mg protein/min | 219% | 0.92 fold | 0.82 fold | 0.78 fold | 0.54 fold | Fold Increase, Midazolam 1′-hydroxylation (CYP3A4/5) activity (CYP3A4/5; 10 μM): 0.49 fold; Enzyme activity, Midazolam 1′-hydroxylation (CYP3A4/5) (CYP3A4/5; 0.01 μM): 0.180 ± 0.023 pmol/mg protein/min; Percent positive control, Midazolam 1′-hydroxylation (CYP3A4/5) activity (CYP3A4/5; 0.01 μM): −2.04%; Enzyme activity, Midazolam 1′-hydroxylation (CYP3A4/5) (CYP3A4/5; 0.05 μM): 0.161 ± 0.013 pmol/mg protein/min; Percent positive control, Midazolam 1′-hydroxylation (CYP3A4/5) activity (CYP3A4/5; 0.05 μM): −4.63%; Enzyme activity, Midazolam 1′-hydroxylation (CYP3A4/5) (CYP3A4/5; 0.1 μM): 0.151 ± 0.002 pmol/mg protein/min; Percent positive control, Midazolam 1′-hydroxylation (CYP3A4/5) activity (CYP3A4/5; 0.1 μM): −5.89%; Enzyme activity, Midazolam 1′-hydroxylation (CYP3A4/5) (CYP3A4/5; 1 μM): 0.106 ± 0.004 pmol/mg protein/min; Percent positive control, Midazolam 1′-hydroxylation (CYP3A4/5) activity (CYP3A4/5; 1 μM): −12.0%; Enzyme activity, Midazolam 1′-hydroxylation (CYP3A4/5) (CYP3A4/5; 10 μM): 0.0957 ± 0.0067 pmol/mg protein/min; Percent positive control, Midazolam 1′-hydroxylation (CYP3A4/5) activity (CYP3A4/5; 10 μM): −13.4%; concentration of formed DELAQ in laquinimod media compared to Compound 2 media [2]: approximately 2 fold; increase in the formation of DELAQ from laquinimod compared to Compound 2 ([2]; 10 μM): approximately 3 fold; ratio of test article:DELAQ in spent media, on average ([2]; 10 μM): 15.7
